# Results: patent US8835509B2, “Self emulsifying drug delivery system for a curcuminoid based composition” (Arbro Pharmaceuticals Ltd., priority 2010, dated 2014)
# Like-named read-outs stand apart in the source and are kept apart here.
# What was measured:
# [1] = Solubility test of curcumin in oils, surfactants, milk, BSA and casein; assay type: physicochemical; details: thermodynamic from solid
# Method: The solubility of curcumin in a number of oils such as citronella oil, castor oil, ethyl oleate, and palm rose oil, coconut oil, CAPRYOL™ 90 and a number of surfactants such as TWEEN® 80, CREMOPHOR® EL, PEG 200 and TRANSCUTOL® HP were determined in order to find out the appropriate oils and surfactants as compositions of SNEDDS. Solubility was also determined in milk, BSA and casein.
# An excess amount of curcumin was added to 5 ml of oil or surfactant solutions. The resultant mixture was shaken reciprocally at 37° C. for 72 h, followed by centrifugation at 12000 rpm for 10 min. The supernatant was filtered through a membrane filter (0.45 μm) to remove the remaining insoluble curcumin. After the appropriate dilution with methanol, the drug concentration in the filtrate was quantified by HPLC.
# [2] = rats, oral administration of 400 mg of curcumins, cited from earlier work
# [3] = rat intestine in vitro, cited from earlier work
smiles,measurement,setting,value
"COc1cc(/C=C/C(=O)/C=C(O)/C=C/c2ccc(O)c(OC)c2)ccc1O [Curcumin, curcumin]",solubility at 72 h,"[1]; 37 °C, plasma or biological fluid, in Casein, read-out: Solubility of Curcumin in milk, BSA and Casein",14 µg/mL
same,solubility at 72 h,"[1]; 37 °C, plasma or biological fluid, in Milk, read-out: Solubility of Curcumin in milk, BSA and Casein",23800 µg/mL
same,solubility at 72 h,"[1]; Almond oil, oil or lipid, in Almond, 37° C., 72 h, read-out: Solubility of Curcumin in oils, Sol",1250 µg/mL
same,solubility at 72 h,"[1]; Castor oil, oil or lipid, in Castor, 37° C., 72 h, read-out: Solubility of Curcumin in oils, Sol",4420 µg/mL
same,solubility at 72 h,"[1]; Citronella oil, oil or lipid, in Citronella, 37° C., 72 h, read-out: Solubility of Curcumin in oils, Sol",13200 µg/mL
same,solubility at 72 h,"[1]; Lavender oil, oil or lipid, in Lavender, 37° C., 72 h, read-out: Solubility of Curcumin in oils, Sol",3440 µg/mL
same,solubility at 72 h,"[1]; Palm Rose oil, oil or lipid, in Palm Rose, 37° C., 72 h, read-out: Solubility of Curcumin in oils, Sol",6030 µg/mL
same,solubility at 72 h,"[1]; aqueous with cosolvent or surfactant or cyclodextrin, in TWEEN® 60 (100% conc), 37° C., 72 h, read-out: Solubility of Curcumin in surfactants, Sol",34 µg/mL
same,solubility at 72 h,"[1]; aqueous with cosolvent or surfactant or cyclodextrin, in TWEEN® 80 (100% conc), 37° C., 72 h, read-out: Solubility of Curcumin in surfactants, Sol",484 µg/mL
same,solubility at 72 h,"[1]; bovine, 37 °C, plasma or biological fluid, in BSA, read-out: Solubility of Curcumin in milk, BSA and Casein",24 µg/mL
same,solubility at 72 h,"[1]; coconut oil, oil or lipid, in Cocconut Oil, 37° C., 72 h, read-out: Solubility of Curcumin in oils, Sol",1680 µg/mL
same,solubility at 72 h,"[1]; oil or lipid, in Arachis Oil, 37° C., 72 h, read-out: Solubility of Curcumin in oils, Sol",160 µg/mL
same,solubility at 72 h,"[1]; oil or lipid, in CAPRYOL™ 90, 37° C., 72 h, read-out: Solubility of Curcumin in oils, Sol",7580 µg/mL
same,solubility at 72 h,"[1]; oil or lipid, in Emu oil, 37° C., 72 h, read-out: Solubility of Curcumin in oils, Sol",1580 µg/mL
same,solubility at 72 h,"[1]; oil or lipid, in Ethyl Oleate, 37° C., 72 h, read-out: Solubility of Curcumin in oils, Sol",589 µg/mL
same,solubility at 72 h,"[1]; oil or lipid, in Glyc Mono ol, 37° C., 72 h, read-out: Solubility of Curcumin in oils, Sol",154 µg/mL
same,solubility at 72 h,"[1]; oil or lipid, in IPM, 37° C., 72 h, read-out: Solubility of Curcumin in oils, Sol",1130 µg/mL
same,solubility at 72 h,"[1]; oil or lipid, in Labrafilm F 1944, 37° C., 72 h, read-out: Solubility of Curcumin in oils, Sol",2560 µg/mL
same,solubility at 72 h,"[1]; oil or lipid, in Labrafilm F2125, 37° C., 72 h, read-out: Solubility of Curcumin in oils, Sol",3590 µg/mL
same,solubility at 72 h,"[1]; oil or lipid, in Lauroglycol, 37° C., 72 h, read-out: Solubility of Curcumin in oils, Sol",2610 µg/mL
same,solubility at 72 h,"[1]; oil or lipid, in Light Paraffin, 37° C., 72 h, read-out: Solubility of Curcumin in oils, Sol",7 µg/mL
same,solubility at 72 h,"[1]; oil or lipid, in Linseed Oil, 37° C., 72 h, read-out: Solubility of Curcumin in oils, Sol",277 µg/mL
same,solubility at 72 h,"[1]; olive oil, oil or lipid, in Oilve, 37° C., 72 h, read-out: Solubility of Curcumin in oils, Sol",501 µg/mL
same,solubility at 72 h,"[1]; organic solvent or mixture, in CREMOPHOR® EL (100% conc), 37° C., 72 h, read-out: Solubility of Curcumin in surfactants, Sol",36600 µg/mL
same,solubility at 72 h,"[1]; organic solvent or mixture, in CREMOPHOR® RH (100% conc), 37° C., 72 h, read-out: Solubility of Curcumin in surfactants, Sol",38700 µg/mL
same,solubility at 72 h,"[1]; organic solvent or mixture, in LABRASOL® (100% conc), 37° C., 72 h, read-out: Solubility of Curcumin in surfactants, Sol",846 µg/mL
same,solubility at 72 h,"[1]; organic solvent or mixture, in PEG 200 (100% conc), 37° C., 72 h, read-out: Solubility of Curcumin in surfactants, Sol",1040 µg/mL
same,solubility at 72 h,"[1]; organic solvent or mixture, in PEG 400 (100% conc), 37° C., 72 h, read-out: Solubility of Curcumin in surfactants, Sol",512 µg/mL
same,solubility at 72 h,"[1]; organic solvent or mixture, in PEG 600 (100% conc), 37° C., 72 h, read-out: Solubility of Curcumin in surfactants, Sol",123 µg/mL
same,solubility at 72 h,"[1]; organic solvent or mixture, in TRANSCUTOL® HP (100% conc), 37° C., 72 h, read-out: Solubility of Curcumin in surfactants, Sol",96400 µg/mL
same,curcumin in portal blood,[2]; 15 minute to 24 hour after administration,trace amount
same,curcumin in heart blood,[2],no curcumin was found
same,absorption of curcumin,[3]; present as micelles,56%
same,absorption of curcumin,[3]; present in a free form,47%
